Assay results as given in patent US9193665B2, “Synthesis of galanal compounds and analogues thereof” (Academia Sinica, priority 2013, dated 2015).

Legend:
GLP-1 receptor = target: T1, GLP-1 receptor (Rattus norvegicus, UniProt P32301); test: GLP-1 dependent cAMP production from RIN-m5F cells (ELISA); assay type: cell-based; conditions: 0.001 mg/ml compound
T1 construct: endogenous in cells; host or cells: RIN-m5F cells
T1 sequence (P32301 22-463): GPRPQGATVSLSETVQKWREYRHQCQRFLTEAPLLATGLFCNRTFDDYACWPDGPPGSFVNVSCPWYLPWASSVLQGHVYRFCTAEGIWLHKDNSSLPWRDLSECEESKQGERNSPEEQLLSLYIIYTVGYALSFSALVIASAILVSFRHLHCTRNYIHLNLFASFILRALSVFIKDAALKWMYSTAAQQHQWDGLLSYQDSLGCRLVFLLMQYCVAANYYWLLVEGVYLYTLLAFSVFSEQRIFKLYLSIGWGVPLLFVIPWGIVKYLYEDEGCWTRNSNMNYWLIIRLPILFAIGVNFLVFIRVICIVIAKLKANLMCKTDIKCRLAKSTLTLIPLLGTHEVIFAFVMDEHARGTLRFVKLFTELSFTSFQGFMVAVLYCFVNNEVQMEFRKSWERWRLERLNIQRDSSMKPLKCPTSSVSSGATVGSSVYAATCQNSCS
Experimental: The cells were cultured in 37° C. with 5% CO2 for 42 hours prior to cAMP production experiment.
The stimulation process was terminated by replacing the stimulation medium with 0.05 ml per well of ice-cold absolute ethanol, and further incubated at −20° C. for 20 min. The cellular cAMP was extracted with 0.085 ml PBS after the ethanol in the wells were evaporated in a vacuum desiccator for 35 min.
The total cAMP from each well was determined by ELISA method according the procedure recommended by the supplier.

DIO mice = test: Oral glucose tolerance test (OGTT) in diet-induced obese (DIO) mice; assay type: in vivo; conditions: fasted DIO mice, compound by gavage 30 min before oral glucose 2 g/kg, glucose measured 0-90 min, FIG. 2A/2B
Experimental: DIO mice were male C56BL/6J-Narl mice at age of 13 to 15 weeks that have been fed with Western Diet (TestDiet 5342) for 6 to 8 weeks. DIO mice were fasted for five hours and then gavaged with a compound described herein (e.g., compounds RJ21 and RJ27) at indicated dose or with vehicle alone. Thirty minutes later, the mice were gavaged with glucose (2 g/kg body weight). The level of blood glucose was measured right before and every 30 minutes after the glucose challenge up to 90 minutes. The data are expressed as mean±SD and analyzed by Student's t-test using Prism (GraphPad).
The effect of the compounds to the homeostasis of blood glucose using oral glucose tolerance test (OGTT) was examined in this example. Fasted DIO mice were gavaged with RJ21, RJ27, or vehicle alone, and received an oral glucose challenge (2 g/kg body weight) 30 minutes later. The level of blood glucose was measured right before (0 minute) and every 30 minutes after the glucose gavage.

Molecule	potentiation of the effect of GLP-1 on cAMP production (factor) (GLP-1 receptor; 30 nM GLP-1, RIN-m5F cells, 15 min)	cAMP generation by the compound by itself (agonist effect) (GLP-1 receptor; RIN-m5F cells, little cAMP response at 3 nM GLP-1)	blood glucose level versus vehicle-treated mice (DIO mice)
galanal B [RJ21]	2	did not affect	significantly lower
COC(=O)C1=CC[C@H]2[C@@](C=O)(CCC3C(C)(C)CCC[C@@]32C)[C@H](O)C1 (stereo partly shown) [RJ27]	–	–	significantly lower
